Measured values published in patent US5620676A, “Biologically active ATP analogs” (priority 1995, dated 1997).
“Also recorded” adds a separate entry of the source.

Test system: P2Y receptors
Experiment: Overall activity in P2Y receptor systems
In short: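 Phospholipase C: [3H]inositol-labeled turkey erythrocyte ghosts were incubated with nucleotide analogs plus 1 μM GTPγS, pH 7.0, 5 min at 30° C; [3H]inositol phosphates were quantified after anion exchange, and K0.5 was averaged from 3-8 dose-response curves. P2Y relaxation was tested in guinea pig taenia coli and rabbit aorta and mesenteric artery; P2X contraction in guinea pig bladder and vas deferens and rabbit saphenous artery.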

**Q.** Which “overall activity in words, P2Y systems” value (listed as 2-(6-cyanohexyl)thio ATP) does the source give for `N#CCCCCCCSc1nc(N)c2ncn([C@@H]3O[C@H](COP(=O)(O)OP(=O)(O)OP(=O)(O)O)[C@@H](O)[C@H]3O)c2n1` [2-(6-Cyanohexylthio)-ATP, 2-(6-Cyanohexylthio)adenosine-5'-triphosphate] here?
**A.** Its value is “by far the most potent agonist in several P2Y receptor preparations”.

**Q.** What about the “overall activity in words, P2Y systems” value (listed as 2-(6-cyanohexylthio)-ATP) of the same compound?
**A.** The value was “the most potent compound in all of the P2Y receptor assays; also recorded: nanomolar potency”.
